Patent publication US10421740B2, “Pesticidally active heterocyclic derivatives with sulphur containing substituents” (SYNGENTA PARTICIPATIONS AG, priority 2016, dated 2019)

Assays:
[1] = tested on: Diabrotica balteata (Corn Root Worm); assay: Activity against Diabrotica balteata (corn root worm); format: in vivo; details: 96 h, application rate 200 ppm, maize sprouts, L2 larvae, 4 days after infestation, read-out: effect in at least one of the two categories (mortality or growth inhibition)
Method: Example B2: Activity Against Diabrotica balteata (Corn Root Worm)
Maize sprouts placed onto an agar layer in 24-well microtiter plates were treated with aqueous test solutions prepared from 10'000 ppm DMSO stock solutions by spraying. After drying, the plates were infested with L2 larvae (6 to 10 per well). The samples were assessed for mortality and growth inhibition in comparison to untreated samples 4 days after infestation.

[2] = tested on: Myzus persicae (Green Peach Aphid); assay: Activity against Myzus persicae (green peach aphid): feeding/contact activity; format: in vivo; details: foliar, 144 h, application rate 200 ppm, sunflower leaf discs, aphid population of mixed ages, 6 days after infestation
Method: Example B3: Activity Against Myzus persicae (Green Peach Aphid): Feeding/Contact Activity
Sunflower leaf discs were placed onto agar in a 24-well microtiter plate and sprayed with aqueous test solutions prepared from 10'000 ppm DMSO stock solutions. After drying, the leaf discs were infested with an aphid population of mixed ages. The samples were assessed for mortality 6 days after infestation.

[3] = tested on: Myzus persicae (Green Peach Aphid); assay: Activity against Myzus persicae (green peach aphid): systemic activity; format: in vivo; details: 144 h, test rate 24 ppm, roots of pea seedlings in test solution, 6 days
Method: Example B4: Activity Against Myzus persicae (Green Peach Aphid): Systemic Activity
Roots of pea seedlings infested with an aphid population of mixed ages were placed directly into aqueous test solutions prepared from 10'000 DMSO stock solutions. The samples were assessed for mortality 6 days after placing seedlings into test solutions.

[4] = tested on: Plutella xylostella (Diamond Back Moth); assay: Activity against Plutella xylostella (diamond back moth); format: in vivo; details: 120 h, application rate 200 ppm, artificial diet, L2 larvae, 5 days after infestation, read-out: effect in at least one of the two categories (mortality or growth inhibition)
Method: Example B5: Activity Against Plutella xylostella (Diamond Back Moth)
24-well microtiter plates with artificial diet were treated with aqueous test solutions prepared from 10'000 ppm DMSO stock solutions by pipetting. After drying, the plates were infested with L2 larvae (10 to 15 per well). The samples were assessed for mortality and growth inhibition in comparison to untreated samples 5 days after infestation.

[5] = tested on: Spodoptera littoralis (Egyptian Cotton Leaf Worm); assay: Activity against Spodoptera littoralis (Egyptian cotton leaf worm), cotton leaf disc spray; format: in vivo; details: foliar, 72 h, application rate 200 ppm, cotton leaf discs, L1 larvae, 3 days after infestation
Method: Example B8: Activity Against Spodoptera littoralis (Egyptian Cotton Leaf Worm)
Cotton leaf discs were placed onto agar in 24-well microtiter plates and sprayed with aqueous test solutions prepared from 10'000 ppm DMSO stock solutions. After drying the leaf discs were infested with five L1 larvae. The samples were assessed for mortality, anti-feeding effect, and growth inhibition in comparison to untreated samples 3 days after infestation. Control of Spodoptera littoralis by a test sample is given when at least one of the categories mortality, anti-feedant effect, and growth inhibition is higher than the untreated sample.

[6] = tested on: Euschistus heros (Neotropical Brown Stink Bug); assay: Activity against Euschistus heros (neotropical brown stink bug); format: in vivo; details: 120 h, application rate 200 ppm, soybean leaves, N2 nymphs, 5 days after infestation, read-out: effect in at least one of the two categories (mortality or growth inhibition)
Method: Example B9: Activity Against Euschistus heros (Neotropical Brown Stink Bug)
Soybean leaves on agar in 24-well microtiter plates were sprayed with aqueous test solutions prepared from 10'000 ppm DMSO stock solutions. After drying the leaves were infested with N2 nymphs. The samples were assessed for mortality and growth inhibition in comparison to untreated samples 5 days after infestation.

[7] = tested on: Bemisia tabaci (Cotton White Fly); assay: Activity against Bemisia tabaci (cotton white fly): feeding/contact activity; format: in vivo; details: foliar, 144 h, application rate 200 ppm, cotton leaf discs, adult white flies, 6 days after incubation
Method: Example B1: Activity Against Bemisia tabaci (Cotton White Fly): Feeding/Contact Activity
Cotton leaf discs were placed on agar in 24-well microtiter plates and sprayed with aqueous test solutions prepared from 10'000 ppm DMSO stock solutions. After drying the leaf discs were infested with adult white flies. The samples were checked for mortality 6 days after incubation.

Row | Structure (SMILES) | percent effect (mortality or growth inhibition) at 200 ppm [1] [%] | mortality at 200 ppm [2] [%] | mortality at 24 ppm [3] [%] | percent control (mortality or growth inhibition) at 200 ppm [4] [%] | percent control (mortality, anti-feedant effect or growth inhibition) at 200 ppm [5] [%] | effect (mortality or growth inhibition) at 200 ppm [6] [%] | mortality at 200 ppm [7] [%] | melting point [°C]
1 | CCS(=O)(=O)c1cc2ccccc2nc1-c1nnc(-c2cc(C(F)(F)F)ccn2)n1C [Compound A3, 3-ethylsulfonyl-2-[4-methyl-5-[4-(trifluoromethyl)-2-pyridyl]-1,2,4-triazol-3-yl]quinoline] | ≥ 80 | ≥ 80 | ≥ 80 | ≥ 80 | ≥ 80 | – | – | –
2 | CCS(=O)(=O)c1cc2ccccc2nc1-c1nnc(-c2cc(C(F)(F)F)ncn2)n1C [Compound A4, 3-ethylsulfonyl-2-[4-methyl-5-[6-(trifluoromethyl)pyrimidin-4-yl]-1,2,4-triazol-3-yl]quinoline] | ≥ 80 | ≥ 80 | – | ≥ 80 | – | – | – | –
3 | CCS(=O)(=O)c1cc2c(cc1-c1nnc(-c3ccc(C(F)(F)F)nc3)n1C)nc(C(F)(F)F)n2C [Compound A5, 6-ethylsulfonyl-1-methyl-5-[4-methyl-5-[6-(trifluoromethyl)-3-pyridyl]-1,2,4-triazol-3-yl]-2-(trifluoromethyl)benzimidazole] | – | ≥ 80 | ≥ 80 | – | ≥ 80 | ≥ 80 | – | –
4 | CCS(=O)(=O)c1cc2nc(C(F)(F)F)sc2cc1-c1nnc(-c2cc(C(F)(F)F)ccn2)n1C [Compound A6, 5-ethylsulfonyl-6-[4-methyl-5-[4-(trifluoromethyl)-2-pyridyl]-1,2,4-triazol-3-yl]-2-(trifluoromethyl)-1,3-benzothiazole] | ≥ 80 | – | – | ≥ 80 | ≥ 80 | – | ≥ 80 | –
5 | CCSc1cc2sc(C(F)(F)F)nc2cc1-c1nnc(-c2cc(C(F)(F)F)ccn2)n1C [Compound A7, 6-ethylsulfanyl-5-[4-methyl-5-[4-(trifluoromethyl)-2-pyridyl]-1,2,4-triazol-3-yl]-2-(trifluoromethyl)-1,3-benzothiazole] | ≥ 80 | – | – | – | ≥ 80 | – | – | –
6 | CCS(=O)(=O)c1cc2c(nnn2C)nc1-c1nnc(-c2cc(C(F)(F)F)ccn2)n1C [Compound A9, 6-ethylsulfonyl-1-methyl-5-[4-methyl-5-[4-(trifluoromethyl)-2-pyridyl]-1,2,4-triazol-3-yl]triazolo[4,5-b]pyridine] | ≥ 80 | ≥ 80 | – | ≥ 80 | ≥ 80 | ≥ 80 | ≥ 80 | –
7 | CCS(=O)(=O)c1cc2nnn(C)c2nc1-c1nnc(-c2cc(C(F)(F)F)ccn2)n1C [Compound A10, 6-ethylsulfonyl-3-methyl-5-[4-methyl-5-[4-(trifluoromethyl)-2-pyridyl]-1,2,4-triazol-3-yl]triazolo[4,5-b]pyridine] | ≥ 80 | ≥ 80 | ≥ 80 | ≥ 80 | ≥ 80 | – | ≥ 80 | –
8 | CCS(=O)(=O)c1cc2c(nnn2COC)nc1-c1nnc(-c2cc(C(F)(F)F)ccn2)n1C [Compound A11, 6-ethylsulfonyl-1-(methoxymethyl)-5-[4-methyl-5-[4-(trifluoromethyl)-2-pyridyl]-1,2,4-triazol-3-yl]triazolo[4,5-b]pyridine] | – | – | – | – | – | – | – | 176 to 178
9 | CCS(=O)(=O)c1cc2[nH]nnc2nc1-c1nnc(-c2cc(C(F)(F)F)ccn2)n1C [Compound A12, 6-ethylsulfonyl-5-[4-methyl-5-[4-(trifluoromethyl)-2-pyridyl]-1,2,4-triazol-3-yl]-1H-triazolo[4,5-b]pyridine] | – | – | – | – | – | – | – | 303 to 305
10 | CCn1nnc2nc(-c3nnc(-c4cc(C(F)(F)F)ccn4)n3C)c(S(=O)(=O)CC)cc21 [Compound A13, 1-ethyl-6-ethylsulfonyl-5-[4-methyl-5-[4-(trifluoromethyl)-2-pyridyl]-1,2,4-triazol-3-yl]triazolo[4,5-b]pyridine] | – | ≥ 80 | ≥ 80 | ≥ 80 | – | ≥ 80 | – | –
11 | CCS(=O)(=O)c1cc2c(nnn2CCF)nc1-c1nnc(-c2cc(C(F)(F)F)ccn2)n1C [Compound A14, 6-ethylsulfonyl-1-(2-fluoroethyl)-5-[4-methyl-5-[4-(trifluoromethyl)-2-pyridyl]-1,2,4-triazol-3-yl]triazolo[4,5-b]pyridine] | – | ≥ 80 | ≥ 80 | ≥ 80 | – | ≥ 80 | – | –
12 | CCS(=O)(=O)c1cc2nnn(CCF)c2nc1-c1nnc(-c2cc(C(F)(F)F)ccn2)n1C [Compound A15, 6-ethylsulfonyl-3-(2-fluoroethyl)-5-[4-methyl-5-[4-(trifluoromethyl)-2-pyridyl]-1,2,4-triazol-3-yl]triazolo[4,5-b]pyridine] | – | – | ≥ 80 | – | – | – | – | –
13 | CCS(=O)(=O)c1cc2nnn(COC)c2nc1-c1nnc(-c2cc(C(F)(F)F)ccn2)n1C [Compound A16, 6-ethylsulfonyl-3-(methoxymethyl)-5-[4-methyl-5-[4-(trifluoromethyl)-2-pyridyl]-1,2,4-triazol-3-yl]triazolo[4,5-b]pyridine] | – | – | – | – | – | – | – | 198 to 200
14 | CCS(=O)(=O)c1cc2nn(COC)nc2nc1-c1nnc(-c2cc(C(F)(F)F)ccn2)n1C [Compound A17, 6-ethylsulfonyl-2-(methoxymethyl)-5-[4-methyl-5-[4-(trifluoromethyl)-2-pyridyl]-1,2,4-triazol-3-yl]triazolo[4,5-b]pyridine] | – | – | ≥ 80 | – | – | – | – | –
15 | CCS(=O)(=O)c1cc2nn(C)nc2nc1-c1nnc(-c2cc(C(F)(F)F)ccn2)n1C [Compound A18, 6-ethylsulfonyl-2-methyl-5-[4-methyl-5-[4-(trifluoromethyl)-2-pyridyl]-1,2,4-triazol-3-yl]triazolo[4,5-b]pyridine] | – | ≥ 80 | ≥ 80 | – | – | ≥ 80 | – | –
16 | CCS(=O)(=O)c1cc2c(nc1-c1nnc(-c3cc(C(F)(F)F)ccn3)n1C)CC(C)(C)O2 [Compound A19, 6-ethylsulfonyl-2,2-dimethyl-5-[4-methyl-5-[4-(trifluoromethyl)-2-pyridyl]-1,2,4-triazol-3-yl]-3H-furo[3,2-b]pyridine] | – | – | – | ≥ 80 | ≥ 80 | – | – | –
17 | CCS(=O)(=O)c1cc2c(nc1-c1nnc(-c3cc(C(F)(F)F)ncn3)n1C)CC(C)(C)O2 [Compound A20, 6-ethylsulfonyl-2,2-dimethyl-5-[4-methyl-5-[6-(trifluoromethyl)pyrimidin-4-yl]-1,2,4-triazol-3-yl]-3H-furo[3,2-b]pyridine] | ≥ 80 | – | ≥ 80 | – | ≥ 80 | ≥ 80 | – | –
